# Laboratory results taken from patent publication EP0012051A1, “3-Amino-2,4-dioxo-(1H,3H)-quinazolines, process for their preparation and therapeutic composition containing them” (Société dite: BERRI-BALZAC, priority 1978, dated 1980).
# Tests used:
# Type in all cases: in vivo
# rats mâles = test: Diuretic action with water overload in the rat (modified Lipschitz technique, oral); settings: for K = nbre de meq/L pour 100 g d'animal / Na = nbre de meq/L pour 100 g d'animal / dV = pourcentage du volume d'urine émise par rapport au lot témoin et ramené à 100 g de poids corporel: rat, oral, surcharge hydrique; for K = nbre de meq/L pour 100 g d'animal / Na = nbre de meq/L pour 100 g d'animal: 6 h urine; for dV = pourcentage du volume d'urine émise par rapport au lot témoin et ramené à 100 g de poids corporel: 6 h; for diurèse: summary in words of tableaux I à III
# From the text: (§1) L'étude de l'activité diurétique a été effectuée comme suit : • l'expérience a été réalisée en utilisant la technique de LIPSCHITZ & Coll. (J. Pharm. Exp. Ther. 1943, 79, p. 97) modifiée pour la circonstance.
# (§2) Des lots de 6 rats mâles, pesant environ 150 g, mis à jeun et privés de boisson la veille de l'essai, ont été placés par deux dans des cages à métabolisme pour une durée de 6 heures.
# Les produits à essayer ont été administrés par voie orale, à la sonde, en même temps qu'une surcharge hydrique (eau du robinet à 37 °C), à raison de 5 ml pour 100 g de poids corporel.
# (§3) Les volumes urinaires ont été recueillis et mesurés toutes les heures, et la quantité d'urine excrétée est donnée en ml par heure et par rat.
# (§4) Les dosages du chlore, du sodium et du potassium sont effectués sur les prélèvements de 6 heures et sont exprimés en Meq par litre d'urine et par 100 g de rat.
# (§5) A partir de ces chiffres et par rapport aux témoins, des pourcentages d'augmentation ou de diminution de la diurèse ont pu être calculés.
# L'excrétion urinaire est donnée par le rapport : [formula]
# L'activité diurétique est obtenue en faisant le rapport : • E.U. traités • E.U. témoins
# Dans le tableau I figure l'action diurétique avec surcharge hydrique pour les composés A, B et C, et pour le furosémide et l'hydrochlorothiazide.
# RAT = test: Diuretic action with water-and-sodium overload in the rat; settings: for fuite de potassium: rat
# From the text: as §1, §2, §3, §4, §5
# Dans le tableau II figure l'action diurétique avec surcharge hydrosodée pour le composé A et le furosémide.
# chien Beagle = test: Diuresis in the Beagle dog after injection, urine output over one hour; settings: for Emission d'urine en ml TOTAL: TOTAL (60 mn)
# [1] = 2 mg/kg, une heure, versus témoin
smiles,measurement,setting,value
"CN(C)n1c(=O)[nH]c2cc(Cl)c(S(N)(=O)=O)cc2c1=O [Composé A, Chloro-7 diméthylamino-3 dioxo-2,4 (1H,3H) sulfonamido-6 quinazoline]",K = nbre de meq/L pour 100 g d'animal,"rats mâles; dose 0,1 mg/kg",+19 meq/L pour 100 g d'animal
same,K = nbre de meq/L pour 100 g d'animal,rats mâles; dose 1 mg/kg,+18 meq/L pour 100 g d'animal
same,Na = nbre de meq/L pour 100 g d'animal,rats mâles; dose 1 mg/kg,"+139,4 meq/L pour 100 g d'animal"
same,dV = pourcentage du volume d'urine émise par rapport au lot témoin et ramené à 100 g de poids corporel,rats mâles; dose 10 mg/kg,"+38,3%"
same,K = nbre de meq/L pour 100 g d'animal,rats mâles; dose 10 mg/kg,+71 meq/L pour 100 g d'animal
same,Na = nbre de meq/L pour 100 g d'animal,rats mâles; dose 10 mg/kg,+551 meq/L pour 100 g d'animal
same,dV = pourcentage du volume d'urine émise par rapport au lot témoin et ramené à 100 g de poids corporel,rats mâles; dose 25 mg/kg,"+39,7%"
same,K = nbre de meq/L pour 100 g d'animal,rats mâles; dose 25 mg/kg,+67 meq/L pour 100 g d'animal
same,Na = nbre de meq/L pour 100 g d'animal,rats mâles; dose 25 mg/kg,+672 meq/L pour 100 g d'animal
same,dV = pourcentage du volume d'urine émise par rapport au lot témoin et ramené à 100 g de poids corporel,rats mâles; dose 50 mg/kg,"+23,6%"
same,K = nbre de meq/L pour 100 g d'animal,rats mâles; dose 50 mg/kg,+90 meq/L pour 100 g d'animal
same,Na = nbre de meq/L pour 100 g d'animal,rats mâles; dose 50 mg/kg,+606 meq/L pour 100 g d'animal
same,diurèse,rats mâles,augmentent la diurèse
same,action diurétique par rapport au furosémide,RAT; 10 mg/kg composé A sensiblement égale à 25 mg/kg de furosémide,sensiblement double
same,fuite de potassium,RAT; dose 10 mg/kg (doses équivalentes),19%
same,sodium éliminé dans le volume d'urine émis,"chien Beagle; 2 mg/kg, une heure",~10 fois celui du témoin
same,la diurèse est multipliée par,chien Beagle; [1],600/100
same,taux de potassium multiplié par,chien Beagle; [1],"1,2"
same,"Emission d'urine en ml 0,5 mn","chien Beagle; Dose I.V. 1 mg/kg, 0,5 mn","3,5 ml"
same,Emission d'urine en ml 5-10 mn,chien Beagle; Dose I.V. 1 mg/kg,"5,0 ml"
same,Emission d'urine en ml - 20 mn,chien Beagle; Dose I.V. 1 mg/kg,"8,5 ml"
same,Emission d'urine en ml - 30 mn,chien Beagle; Dose I.V. 1 mg/kg,"7,0 ml"
same,Emission d'urine en ml - 40 mn,chien Beagle; Dose I.V. 1 mg/kg,"9,0 ml"
same,Emission d'urine en ml - 50 mn,chien Beagle; Dose I.V. 1 mg/kg,"8,0 ml"
same,Emission d'urine en ml - 60mn,chien Beagle; Dose I.V. 1 mg/kg,"9,0 ml"
same,Emission d'urine en ml TOTAL,chien Beagle; Dose I.V. 1 mg/kg,"50,0 ml"
same,"Emission d'urine en ml 0,5 mn","chien Beagle; Dose I.V. 2 mg/kg, 0,5 mn","8,0 ml"
same,Emission d'urine en ml 5-10 mn,chien Beagle; Dose I.V. 2 mg/kg,"14,5 ml"
same,Emission d'urine en ml - 20 mn,chien Beagle; Dose I.V. 2 mg/kg,"20,5 ml"
same,Emission d'urine en ml - 30 mn,chien Beagle; Dose I.V. 2 mg/kg,"18,5 ml"
same,Emission d'urine en ml - 40 mn,chien Beagle; Dose I.V. 2 mg/kg,"15,5 ml"
same,Emission d'urine en ml - 50 mn,chien Beagle; Dose I.V. 2 mg/kg,"11,5 ml"
same,Emission d'urine en ml - 60mn,chien Beagle; Dose I.V. 2 mg/kg,"8,5 ml"
same,Emission d'urine en ml TOTAL,chien Beagle; Dose I.V. 2 mg/kg,"97,0 ml"
same,"Emission d'urine en ml 0,5 mn","chien Beagle; Dose I.V. 5 mg/kg, 0,5 mn","9,5 ml"
same,Emission d'urine en ml 5-10 mn,chien Beagle; Dose I.V. 5 mg/kg,"10,5 ml"
same,Emission d'urine en ml - 20 mn,chien Beagle; Dose I.V. 5 mg/kg,"10,0 ml"
same,Emission d'urine en ml - 30 mn,chien Beagle; Dose I.V. 5 mg/kg,"8,0 ml"
same,Emission d'urine en ml - 40 mn,chien Beagle; Dose I.V. 5 mg/kg,"9,0 ml"
same,Emission d'urine en ml - 50 mn,chien Beagle; Dose I.V. 5 mg/kg,"5,5 ml"
same,Emission d'urine en ml - 60mn,chien Beagle; Dose I.V. 5 mg/kg,"7,0 ml"
same,Emission d'urine en ml TOTAL,chien Beagle; Dose I.V. 5 mg/kg,"59,5 ml"
same,"Emission d'urine en ml 0,5 mn","chien Beagle; Dose I.V. 10 mg/kg, 0,5 mn","4,0 ml"
same,Emission d'urine en ml 5-10 mn,chien Beagle; Dose I.V. 10 mg/kg,"8,0 ml"
same,Emission d'urine en ml - 20 mn,chien Beagle; Dose I.V. 10 mg/kg,"9,0 ml"
same,Emission d'urine en ml - 30 mn,chien Beagle; Dose I.V. 10 mg/kg,"10,0 ml"
same,Emission d'urine en ml - 40 mn,chien Beagle; Dose I.V. 10 mg/kg,"4,0 ml"
same,Emission d'urine en ml - 50 mn,chien Beagle; Dose I.V. 10 mg/kg,"8,0 ml"
same,Emission d'urine en ml - 60mn,chien Beagle; Dose I.V. 10 mg/kg,"7,5 ml"
same,Emission d'urine en ml TOTAL,chien Beagle; Dose I.V. 10 mg/kg,"50,5 ml"
same,dose avec laquelle la diurèse maximale au bout d'une heure est atteinte,"chien Beagle; voie I.P., une heure",2 mg/kg
"NS(=O)(=O)c1cc(C(=O)O)c(NCc2ccco2)cc1Cl [Furosémide, acide chloro-4 furfurylamino-2 sulfamoyl-5 benzoïque, reference compound]",K = nbre de meq/L pour 100 g d'animal,rats mâles; dose 10 mg/kg,-19 meq/L pour 100 g d'animal
same,dV = pourcentage du volume d'urine émise par rapport au lot témoin et ramené à 100 g de poids corporel,rats mâles; dose 25 mg/kg,+18%
same,dV = pourcentage du volume d'urine émise par rapport au lot témoin et ramené à 100 g de poids corporel,rats mâles; dose 50 mg/kg,+76%
same,K = nbre de meq/L pour 100 g d'animal,rats mâles; dose 50 mg/kg,+84 meq/L pour 100 g d'animal
same,Na = nbre de meq/L pour 100 g d'animal,rats mâles; dose 50 mg/kg,+639 meq/L pour 100 g d'animal
same,diurèse,rats mâles,augmentent la diurèse
same,fuite de potassium,RAT; dose 25 mg/kg (doses équivalentes),"30,3%"
"NS(=O)(=O)c1cc2c(=O)n(N3CCCCC3)c(=O)[nH]c2cc1Cl [Composé C, Chloro-7 pipéridino-3 dioxo-2,4 (1H,3H) sulfonamido-6 quinazoline]",K = nbre de meq/L pour 100 g d'animal,"rats mâles; dose 0,1 mg/kg",+15 meq/L pour 100 g d'animal
same,dV = pourcentage du volume d'urine émise par rapport au lot témoin et ramené à 100 g de poids corporel,rats mâles; dose 1 mg/kg,+15%
same,K = nbre de meq/L pour 100 g d'animal,rats mâles; dose 1 mg/kg,+17 meq/L pour 100 g d'animal
same,Na = nbre de meq/L pour 100 g d'animal,rats mâles; dose 1 mg/kg,+141 meq/L pour 100 g d'animal
same,dV = pourcentage du volume d'urine émise par rapport au lot témoin et ramené à 100 g de poids corporel,rats mâles; dose 10 mg/kg,+35%
same,K = nbre de meq/L pour 100 g d'animal,rats mâles; dose 10 mg/kg,+47 meq/L pour 100 g d'animal
same,Na = nbre de meq/L pour 100 g d'animal,rats mâles; dose 10 mg/kg,+513 meq/L pour 100 g d'animal
same,dV = pourcentage du volume d'urine émise par rapport au lot témoin et ramené à 100 g de poids corporel,rats mâles; dose 25 mg/kg,+31%
same,K = nbre de meq/L pour 100 g d'animal,rats mâles; dose 25 mg/kg,+42 meq/L pour 100 g d'animal
same,Na = nbre de meq/L pour 100 g d'animal,rats mâles; dose 25 mg/kg,+583 meq/L pour 100 g d'animal
same,dV = pourcentage du volume d'urine émise par rapport au lot témoin et ramené à 100 g de poids corporel,rats mâles; dose 50 mg/kg,+18%
same,K = nbre de meq/L pour 100 g d'animal,rats mâles; dose 50 mg/kg,+57 meq/L pour 100 g d'animal
same,Na = nbre de meq/L pour 100 g d'animal,rats mâles; dose 50 mg/kg,+531 meq/L pour 100 g d'animal
same,diurèse,rats mâles,augmentent la diurèse
"NS(=O)(=O)c1cc2c(cc1Cl)NCNS2(=O)=O [Hydrochloro-thiazide, dioxo-1,1 chloro-6 dihydro-3,4 sulfamoyl-7 (1,2,4)H benzothiadiazine, reference compound]",Na = nbre de meq/L pour 100 g d'animal,"rats mâles; dose 0,1 mg/kg","+6,9 meq/L pour 100 g d'animal"
same,dV = pourcentage du volume d'urine émise par rapport au lot témoin et ramené à 100 g de poids corporel,rats mâles; dose 1 mg/kg,+38%
same,K = nbre de meq/L pour 100 g d'animal,rats mâles; dose 1 mg/kg,+29 meq/L pour 100 g d'animal
same,Na = nbre de meq/L pour 100 g d'animal,rats mâles; dose 1 mg/kg,+374 meq/L pour 100 g d'animal
same,dV = pourcentage du volume d'urine émise par rapport au lot témoin et ramené à 100 g de poids corporel,rats mâles; dose 10 mg/kg,+40%
same,K = nbre de meq/L pour 100 g d'animal,rats mâles; dose 10 mg/kg,+22 meq/L pour 100 g d'animal
same,Na = nbre de meq/L pour 100 g d'animal,rats mâles; dose 10 mg/kg,+430 meq/L pour 100 g d'animal
same,dV = pourcentage du volume d'urine émise par rapport au lot témoin et ramené à 100 g de poids corporel,rats mâles; dose 25 mg/kg,+48%
same,K = nbre de meq/L pour 100 g d'animal,rats mâles; dose 25 mg/kg,+44 meq/L pour 100 g d'animal
same,Na = nbre de meq/L pour 100 g d'animal,rats mâles; dose 25 mg/kg,+504 meq/L pour 100 g d'animal
same,diurèse,rats mâles,augmentent la diurèse
"CCN(CC)n1c(=O)[nH]c2cc(Cl)c(S(N)(=O)=O)cc2c1=O [Composé B, Chloro-7 diéthylamino-3 dioxo-2,4 (1H,3H) sulfonamido-6 quinazoline]",K = nbre de meq/L pour 100 g d'animal,rats mâles; dose 1 mg/kg,+15 meq/L pour 100 g d'animal
same,Na = nbre de meq/L pour 100 g d'animal,rats mâles; dose 1 mg/kg,+160 meq/L pour 100 g d'animal
same,dV = pourcentage du volume d'urine émise par rapport au lot témoin et ramené à 100 g de poids corporel,rats mâles; dose 10 mg/kg,+30%
same,K = nbre de meq/L pour 100 g d'animal,rats mâles; dose 10 mg/kg,+35 meq/L pour 100 g d'animal
same,Na = nbre de meq/L pour 100 g d'animal,rats mâles; dose 10 mg/kg,+582 meq/L pour 100 g d'animal
same,dV = pourcentage du volume d'urine émise par rapport au lot témoin et ramené à 100 g de poids corporel,rats mâles; dose 25 mg/kg,+35%
same,K = nbre de meq/L pour 100 g d'animal,rats mâles; dose 25 mg/kg,+33 meq/L pour 100 g d'animal
same,Na = nbre de meq/L pour 100 g d'animal,rats mâles; dose 25 mg/kg,+671 meq/L pour 100 g d'animal
same,dV = pourcentage du volume d'urine émise par rapport au lot témoin et ramené à 100 g de poids corporel,rats mâles; dose 50 mg/kg,+31%
same,K = nbre de meq/L pour 100 g d'animal,rats mâles; dose 50 mg/kg,+21 meq/L pour 100 g d'animal
same,Na = nbre de meq/L pour 100 g d'animal,rats mâles; dose 50 mg/kg,+550 meq/L pour 100 g d'animal
same,diurèse,rats mâles,augmentent la diurèse
